According to ChEMBL document CHEMBL4334461, “Taicrypnacids A and B, a Pair of C37 Heterodimeric Diterpenoid Stereoisomers from Taiwania cryptomerioides” (J Nat Prod, 2019):
Active and inactive are the calls of the source. The rule behind the calls is not given here.

Experiments:
MCF7 [1] = experiment: Cytotoxicity against human MCF7 cells measured after 24 hrs by MTT assay; assay type: functional, cell-based; settings: MCF7, 24 h
U2OS = experiment: Cytotoxicity against human U2OS cells measured after 24 hrs by MTT assay; assay type: functional, cell-based
HCT-116 = experiment: Cytotoxicity against human HCT116 cells measured after 24 hrs by MTT assay; assay type: functional, cell-based; settings: HCT-116, 24 h
MCF7 [2] = experiment: Induction of ROS-mediated autophagy in human MCF7 cells assessed as increase in LC3-2/LC3-1 ratio; assay type: functional, cell-based
MCF7 [3] = experiment: Induction of endoplasmic reticular stress in human MCF7 cells assessed as upregulation of IRE1a by Western blot analysis; assay type: functional, cell-based
MCF7 [4] = experiment: Induction of apoptosis in human MCF7 cells assessed as activation of cleaved caspase-7; assay type: functional, cell-based
MCF7 [5] = experiment: Induction of cell death in human MCF7 cells assessed as increase in intracellular calcium measured after 24 hrs by Fluo-4/AM probe based confocal microscopic analysis; assay type: functional
MCF7 [6] = experiment: Induction of endoplasmic reticular stress in human MCF7 cells assessed as upregulation of GRP78 by Western blot analysis; assay type: functional, cell-based
MCF7 [7] = experiment: Induction of apoptosis in human MCF7 cells assessed as activation of cleaved caspase-3; assay type: functional, cell-based
MCF7 [8] = experiment: Induction of ROS-mediated autophagy in human MCF7 cells assessed as increase in autophagosome numbers; assay type: functional, cell-based
MCF7 [9] = experiment: Induction of endoplasmic reticular stress in human MCF7 cells assessed as upregulation of XBP1s by Western blot analysis; assay type: functional, cell-based
MCF7 [10] = experiment: Induction of endoplasmic reticular stress in human MCF7 cells assessed as upregulation of CHOP by Western blot analysis; assay type: functional, cell-based
MCF7 [11] = experiment: Induction of apoptosis in human MCF7 cells assessed as activation of cleaved caspase-9; assay type: functional, cell-based
MCF7 [12] = experiment: Induction of apoptosis in human MCF7 cells assessed as activation of cleaved PARP; assay type: functional, cell-based
MCF-10A = experiment: Cytotoxicity against human MCF10A cells at 3.125 to 50 uM measured after 24 hrs by MTT assay; assay type: cell-based
MCF7 [13] = experiment: Induction of ROS-mediated autophagy in human MCF7 cells assessed as downregulation of p62; assay type: functional, cell-based
MCF7 [14] = experiment: Induction of mitochondria-mediated apoptosis in human MCF7 cells; assay type: functional, cell-based
MCF7 [15] = experiment: Induction of cell death in human MCF7 cells assessed as increase in ROS level measured after 24 hrs by DCFHDA probe based flow cytometry; assay type: functional
MCF7 [16] = experiment: Induction of endoplasmic reticulum vacuolation in human MCF7 cells assessed as increase in vacuole formation at 5 to 20 uM measured after 24 hrs by ER-tracker and Hoechst 33342 staining based confocal microscopy; assay type: functional, cell-based
MCF7 [17] = experiment: Induction of mitochondrial morphological changes in human MCF7 cells assessed as dilation of mitochondria at 5 to 20 uM measured after 24 hrs by Mito-tracker and Hoechst 33342 staining based confocal microscopy; assay type: functional, cell-based
MCF7 [18] = experiment: Induction of morphological changes in human MCF7 cells assessed as change in vacuole at 5 to 20 uM measured after 24 hrs by optical microscopy analysis; assay type: functional, cell-based

C=C1CC[C@@H]2[C@](C)(CCC[C@@]2(C)C(=O)OC)[C@H]1C/C=C(\C)[C@@H]1C[C@@H]2C[C@H]3C(C)(C)CCC[C@]3(C)c3ccc(O)c(c32)O1
IC50 (MCF7 [1]): > 50 µM
IC50 (U2OS): > 50 µM
IC50 (HCT-116): > 50 µM

C=C1CC[C@@H]2[C@](C)(CCC[C@@]2(C)C(=O)O)[C@H]1C/C=C(\C)[C@@H]1C[C@@H]2C[C@H]3C(C)(C)CCC[C@]3(C)c3ccc(O)c(c32)O1
Activity (MCF7 [2]): Active
Activity (MCF7 [3]): Active
Activity (MCF7 [4]): Active
Activity (MCF7 [5]): Dose-dependent effect
Activity (MCF7 [6]): Active
Activity (MCF7 [7]): Active
Activity (MCF7 [8]): Active
IC50 (MCF7 [1]): 7.4 µM
Activity (MCF7 [9]): Active
Activity (MCF7 [10]): Active
Activity (MCF7 [11]): Active
Activity (MCF7 [12]): Active
Activity (MCF-10A): Toxic
IC50 (U2OS): 8.4 µM
Activity (MCF7 [13]): Active
Activity (MCF7 [14]): Active
Activity (MCF7 [15]): Dose-dependent effect
Activity (MCF7 [16]): Active
IC50 (HCT-116): 7.5 µM
Activity (MCF7 [17]): Active
Activity (MCF7 [18]): Active

C=C1CC[C@@H]2[C@](C)(CCC[C@@]2(C)C(=O)O)[C@H]1C/C=C(\C)[C@H]1C[C@H]2C[C@H]3C(C)(C)CCC[C@]3(C)c3ccc(O)c(c32)O1
IC50 (MCF7 [1]): 9.9 µM
IC50 (U2OS): 9.7 µM
IC50 (HCT-116): 7.8 µM
